# Several values for one entry are separate records, joined by “and”; a condition that tells them apart may be missing. Equal entries are not always repeated. Entries after “also recorded” stand apart in the source; their conditions may differ. Where two headings read alike, the source gives them in different places.
# What was measured:
# β-hematin formation = assay: Inhibition of β-hematin formation; type: biochemical; details: n = 3, read-out: IC50: Half maximal inhibitory concentration (βHF)
# Method: The β-hematin (β-H) formation assay was performed as described previously. In 96-well microplates, hemin chloride solution (50 μL, 4 mM) was dissolved in dimethyl sulfoxide (DMSO) (5 mg mL^−1). We dissolved the compounds in DMSO and added different concentrations (100–5 mM) to the test wells (50 μL). As controls, 50 μL of water and 50 μL of DMSO were used. Experiments were conducted in triplicate. In order to generate β-H, acetate buffer (100 μL, 0.2 M, pH 4.4) was used. After 48 h at 37 °C, the plates were centrifuged (4000 RPM for 15 min, IEC-CENTRA, MP4R) (International Equipment Company, MA, USA). After discarding the supernatants, the pellet was washed twice with DMSO (200 μL) and dissolved in NaOH (200 μL, 0.2 N). […] The outcomes are expressed as percentages of inhibition of β-H formation.
# [1] = system: mitochondrial electrochemical membrane potential of Leishmania mexicana promastigotes; assay: Mitochondrial membrane potential of L. mexicana (rhodamine 123); type: cell-based; details: compounds 10 μM; b32 compares 4b, 4e with 4c
# Method: The effect of different compounds on the mitochondrial membrane potential of L. mexicana promastigotes was evaluated using rhodamine 123, a fluorescent dye distributed inside mitochondria according to the electrochemical membrane potential, as reported previously. Briefly, 10^8 parasites were obtained by centrifugation at 600× g for 2 min and washed in phosphate-buffered saline solution (PBS) plus 1% glucose. The pellet was resuspended in the same buffer but in the presence of 20 µM rhodamine 123 for 45 min at 29 °C in the dark with mild agitation. Then, parasites were washed twice, resuspended in the same buffer, and transferred into a stirred cuvette. Measurements (excitation wavelength [λex], 488 nm; emission wavelength [λem], 530 nm) were made in a Hitachi 7000 spectrofluorometer at 29 °C (Hitachi High-Tech Corporation, Tokyo, Japan). FCCP (2 µM) was used as a positive control.
# [2] = system: acidocalcisomes of Leishmania mexicana; assay: Acidocalcisome function (acridine orange accumulation); type: cell-based; details: results not shown
# Source text: Considering this issue, we investigate another possible action of these compounds in these parasites. The acidocalcisomes are another relevant organelle characteristic of these trypanosomatids directly involved in bioenergetics and intracellular Ca^2+ regulation. These are acidic vacuoles rich in calcium and phosphates, engaged in the production and storage of pyrophosphates, and alternative energetic currency in addition to ATP, well known in trypanosomatids. For this reason, we also tested the possible effect of the compounds 4b, 4c, and 4e on acidocalcisomes, using acridine orange accumulation as a well-recognized method. This compound is released to the medium after parasite alkalization, denoting the loss of this organelle function. […] In this context, it is interesting to mention that in trypanosomatids, the disruption of intracellular Ca^2+ homeostasis drives parasite death, thus proposing that alteration of this function could be a rational therapeutic target.
# [3] = system: Leishmania mexicana promastigotes; assay: L. mexicana promastigote growth inhibition; type: cell-based; details: growth/viability, Bel 21 strain
# Method: The growth of L. mexicana was carried out as previously reported. L. mexicana (Bel 21 strain) promastigotes were cultured in liver infusion-tryptose (LIT) medium supplemented with 10% foetal bovine serum using continuous agitation at 29 °C, as reported previously. A growth curve was performed to evaluate the susceptibility of parasites to the different compounds at different concentrations. Parasites were counted daily using a Neubauer chamber. […] The final concentration of sterile DMSO in the parasite culture was 0.1%, not affecting the viability. […] FCCP (2 µM) was used as a positive control.
# Plasmodium berghei ANKA = assay: Four-day suppressive test in P. berghei-infected mice; type: in vivo; details: for Survival: number of mice that survived until Day 30 post-infection/total number of mice in the group / %P: percent parasitaemia (± SEM): 25 mg/kg ip; for Sd: survival days (± SEM): P. berghei-infected BALB/c mice, 25 mg/kg ip once daily for four days; for Sd: survival days (± SEM) / %P: percent parasitaemia (± SEM): n = 6; for %P: percent parasitaemia (± SEM): fourth day post-infection
# Method: The compounds 4c and 4e were evaluated in mice infected with P. berghei ANKA, a strain of murine malaria susceptible to CQ(DPh). The compounds 4c and 4e were assessed on the fourth day post-infection by evaluating their ability to increase mouse survival and reduce parasitaemia in vivo compared to untreated controls. The compounds 4c, 4e (25 mg/kg), or CQ (25 mg/kg) were administered intraperitoneally (ip) once daily in mice following previously reported protocols. The Institute of Immunology Bioethical Committee approved the study (AS 161019). We followed the guidelines for Laboratory Animal Research of the National Research Council (ILAR).
# For the experiments, male BALB/c mice, 18–22 g, were fed a commercial pellet diet under controlled conditions approved by the Institute of Immunology’s Ethics Committee. The animals were infected with the rodent malaria ANKA strain of Plasmodium berghei; 1 × 10^6 infected erythrocytes diluted in phosphate-buffered saline (PBS; 10 mM, pH 7.4, 0.1 mL) were injected […] into mice. Microscopic examination of Giemsa-stained smears was used to monitor parasitaemia.
# Plasmodium berghei-infected red blood cells were injected into the caudal vein of BALB/c mice (18–23 g) (n = 6). Within two hours of infection, the active compounds from the in vitro test began to be administered (inhibition of β-H formation). Following dissolution in DMSO (0.1 M), the compounds were diluted with 2% saline-Tween 20 solution. The compounds (dose 25 mg kg^−1) were administered ip for four days. Giemsa-stained smears were examined on the fourth day to determine the parasite load. As a positive control, CQ (25 mg kg^−1) in DMSO (0.1 M) diluted with 2% saline-Tween 20 solution was used. A control group of mice infected with P. berghei incubated with saline solution was used to determine survival times. The results are expressed as a percentage of parasitaemia, and the survival curve was constructed based on the number of days of survival after treatment with the compound over that of mice infected without treatment.
# [4] = In vitro toxicity on mouse red blood cells (haemolysis); type: cell-based; details: mouse RBCs, 37 °C
# Method: To evaluate the in vitro toxicological effects of the compounds, we measured the haemoglobin released into the supernatant fraction of lysed red blood cells (RBCs). […] To obtain 100% RBCs, mouse blood was spun down at 800 g for 10 min and washed thrice with saline solution. […] RBCs were lysed in 1% saponin solution and were used as a positive control and a PBS solution as a negative control. The percentage of haemolysis was calculated using the formula: % Haemolysis = [(AT − AN)/(AP − AN)] × 100, where AT = mean absorbance of the test compound; AN = mean absorbance of the negative control; AP = mean absorbance of the positive control.
# [5] = system: Leishmania mexicana promastigotes; design: method as in PMID 27458218; details: reference compound; cited from earlier work
# [6] = 2% suspension of mouse red blood cells
smiles,measurement,setting,value
"COc1ccccc1C(=O)OCCNc1ccnc2cc(Cl)ccc12 [4a, 2-(7-Chloroquinolin-4-ylamino)ethyl-2-methoxybenzoate]",IC50,β-hematin formation,4.16 ± 0.61 µM
"COc1ccc(C(=O)OCCNc2ccnc3cc(Cl)ccc23)cc1 [4b, 2-(7-Chloroquinolin-4-ylamino)ethyl-4-methoxybenzoate]",Effect on mitochondrial electrochemical membrane potential (rhodamine 123 fluorescence release),[1],rapid increase in the fluorescence; also recorded: significantly higher
same,IC50,β-hematin formation,3.09 ± 0.27 µM
same,Effect on acidocalcisome functionality,[2],none of these compounds showed any effect
same,IC50,[3]; Leishmania mexicana,< 10 µM
same,IC50,[3],8.09 ± 1.47 µM
"COc1cccc(C(=O)OCCNc2ccnc3cc(Cl)ccc23)c1OC [4c, 2-(7-Chloroquinolin-4-ylamino)ethyl-2,3-dimethoxybenzoate]",Effect on mitochondrial electrochemical membrane potential (rhodamine 123 fluorescence release),[1],rapid increase in the fluorescence; also recorded: lower
same,Survival: number of mice that survived until Day 30 post-infection/total number of mice in the group,Plasmodium berghei ANKA,0/6
same,Sd: survival days (± SEM),Plasmodium berghei ANKA; 25 mg/kg,16.7 ± 2.16 days and 16.71 ± 2.16 days
same,%P: percent parasitaemia (± SEM),Plasmodium berghei ANKA,9.86 ± 1.55 %
same,IC50,β-hematin formation,2.1 ± 0.48 µM
same,"hemolysis at 45 min, 1 mM",[4]; [6],4.73 ± 0.12%
same,Effect on acidocalcisome functionality,[2],none of these compounds showed any effect
same,IC50,[3]; Leishmania mexicana,< 10 µM
same,IC50,[3],8.46 ± 1.86 µM
"COc1ccc(C(=O)OCCNc2ccnc3cc(Cl)ccc23)c(OC)c1 [4d, 2-(7-Chloroquinolin-4-ylamino)ethyl-2,4-dimethoxybenzoate]",IC50,β-hematin formation,8.59 ± 0.01 µM
"COc1ccc(OC)c(C(=O)OCCNc2ccnc3cc(Cl)ccc23)c1 [4e, 2-(7-Chloroquinolin-4-ylamino)ethyl-2,5-dimethoxybenzoate]",Effect on mitochondrial electrochemical membrane potential (rhodamine 123 fluorescence release),[1],rapid increase in the fluorescence; also recorded: significantly higher
same,Survival: number of mice that survived until Day 30 post-infection/total number of mice in the group,Plasmodium berghei ANKA,0/6
same,Sd: survival days (± SEM),Plasmodium berghei ANKA; 25 mg/kg,14.4 ± 1.20 days and 14.43 ± 1.20 days
same,%P: percent parasitaemia (± SEM),Plasmodium berghei ANKA,12.05 ± 2.36 %
same,IC50,β-hematin formation,1.81 ± 0.83 µM
same,"hemolysis at 45 min, 1 mM",[4]; [6],4.17 ± 0.21%
same,Effect on acidocalcisome functionality,[2],none of these compounds showed any effect
same,IC50,[3]; Leishmania mexicana,< 10 µM
same,IC50,[3],5.67 ± 2.15 µM
"COc1cc(OC)c(C(=O)OCCNc2ccnc3cc(Cl)ccc23)cc1OC [4f, 2-(7-Chloroquinolin-4-ylamino)ethyl-2,4,5-trimethoxybenzoate]",IC50,β-hematin formation,3.29 ± 0.23 µM
"COc1cc(C(=O)OCCNc2ccnc3cc(Cl)ccc23)cc(OC)c1OC [4g, 2-(7-Chloroquinolin-4-ylamino)ethyl-3,4,5-trimethoxybenzoate]",IC50,β-hematin formation,2.98 ± 0.17 µM
"O=C(OCCNc1ccnc2cc(Cl)ccc12)c1cccc(Cl)c1 [4h, 2-(7-Chloroquinolin-4-ylamino)ethyl-3-chlorobenzoate]",IC50,β-hematin formation,6.85 ± 0.94 µM
"O=C(OCCNc1ccnc2cc(Cl)ccc12)c1ccccc1F [4i, 2-(7-Chloroquinolin-4-ylamino)ethyl-2-fluorobenzoate]",IC50,β-hematin formation,4.01 ± 0.09 µM
"Cc1cc(C)cc(C(=O)OCCNc2ccnc3cc(Cl)ccc23)c1 [4j, 2-(7-Chloroquinolin-4-ylamino)ethyl-3,5-dimethylbenzoate]",IC50,β-hematin formation,3.16 ± 0.38 µM
"Cc1ccc([N+](=O)[O-])c(C(=O)OCCNc2ccnc3cc(Cl)ccc23)c1 [4k, 2-(7-Chloroquinolin-4-ylamino)ethyl-5-methyl-2-nitrobenzoate]",IC50,β-hematin formation,4.27 ± 0.67 µM
"CC(C)(C)c1ccc(C(=O)OCCNc2ccnc3cc(Cl)ccc23)cc1 [4l, 2-(7-Chloroquinolin-4-ylamino)ethyl-4-tert-butylbenzoate]",IC50,β-hematin formation,3.57 ± 0.22 µM
"O=C(OCCNc1ccnc2cc(Cl)ccc12)c1ccc(C(F)(F)F)cc1 [4m, 2-(7-Chloroquinolin-4-ylamino)ethyl-4-(trifluoromethyl)benzoate]",IC50,β-hematin formation,3.24 ± 0.15 µM
"CCN(CC)CCCC(C)Nc1ccnc2cc(Cl)ccc12 (stereo not drawn) [CQ(DPh), chloroquine bisphosphate, reference compound]",Sd: survival days (± SEM),Plasmodium berghei ANKA,30 days
same,%P: percent parasitaemia (± SEM),Plasmodium berghei ANKA,0.28 ± 0.15%
"CCN(CC)CCCC(C)Nc1ccnc2cc(Cl)ccc12 (stereo not drawn) [CQ, chloroquine, reference compound]",Survival: number of mice that survived until Day 30 post-infection/total number of mice in the group,Plasmodium berghei ANKA,6/6
same,"hemolysis at 45 min, 1 mM",[4],2.07 ± 0.17%
CC(C)=CCC/C(C)=C/CNCCNC1C2CC3CC(C2)CC1C3 (stereo not drawn) [SQ109],IC50,[5],0.53 ± 0.06 µM
"OCCNc1ccnc2cc(Cl)ccc12 [compound 2, 2-(7-Chloroquinolin-4-ylamino)ethanol]",IC50,β-hematin formation,5.06 ± 0.31 µM

# Reference: PMC10747975, “Synthesis, Antimalarial, Antileishmanial, and Cytotoxicity Activities and Preliminary In Silico ADMET Studies of 2-(7-Chloroquinolin-4-ylamino)ethyl Benzoate Derivatives” (Pharmaceuticals, 2023)
